According to article PMC7092840 (Biochemical Pharmacology, 2011):
Read-outs that look alike come from different tables or passages of the source. Marks after values point to notes of the source that are not given here.

Columns and labels:
[1] = tested on: feline immunodeficiency virus (FIV) VLP budding from 293T cells; assay type: cell-based
[2] = tested on: early endosomes from BHK cells
[3] = tested on: Vero cells; assay type: cell-based
[4] = tested on: K562 cells; test: Exosome release; conditions: 10 μM, 16 h, N = 7, change not significant
[5] = tested on: BHK cells; test: Cell cholesterol content; conditions: 10 μM, 16 h, p = 0.03, N = 5
[6] = tested on: BHK cells; test: Distribution of LBPA-positive structures, confocal morphometry; assay type: cell-based; conditions: 16 h; for LBPA-positive structures Diameter / LBPA-positive structures N°/cell profile: BHK cells, 10 μM analogue, M ± SE; for LBPA-positive structures Diameter: control 1.46 ± 0.02; for LBPA-positive structures N°/cell profile: control 28.6 ± 1.1
[7] = tested on: blood monocytes; test: Transferrin recycling; assay type: cell-based; conditions: human monocytes, 10 μM
[8] = tested on: HIV-1 VLP budding from 293T cells; assay type: cell-based, human immunodeficiency virus type 1
[9] = Aqueous solubility of hydrochloride salt; assay type: physicochemical; conditions: for Aqueous solubility of hydrochloride salt At pH 5.0 / Aqueous solubility of hydrochloride salt At pH 7.4 / solubility: 22 °C; for Aqueous solubility of hydrochloride salt At pH 5.0: 5 mM K2PO4 adjusted to pH 5.0, methanol as cosolvent; for Aqueous solubility of hydrochloride salt At pH 7.4: 5 mM K2PO4 adjusted to pH 7.4, methanol as cosolvent; for pKa × solubility in water at pH 5.0: product of calculated pKa and solubility at pH 5.0; for solubility: phosphate buffer
[10] = tested on: BHK cells; test: Cell viability / tolerated concentration; assay type: cell-based
[11] = ref http://www.patentstorm.us/patents/6939865/description.html; cited from earlier work
[12] = ref [27]; cited from earlier work
[13] = 10 μM, 5 independent experiments, p < 0.01

| Compound | LBPA-positive structures Diameter [6] [μm] | LBPA-positive structures N°/cell profile [6] | Aqueous solubility of hydrochloride salt At pH 5.0 [9] | Aqueous solubility of hydrochloride salt At pH 7.4 [9] | pKa × solubility in water at pH 5.0 [9] | further results |
| --- | --- | --- | --- | --- | --- | --- |
| CCCCc1oc2ccccc2c1C(=O)c1cc(I)c(OCCN(CC)CC)c(I)c1 [AMI, Amiodarone] | 2.01 ± 0.03 | 5.2 ± 0.4 | – | – | – | release of mature VLPs (FIV) [1]: did not inhibit the release of mature VLPs; change in endosome-associated fluorescence [2]: no change; effect on activity of Shiga toxin [3]: not decreased; decrease in secreted acetylcholinesterase with respect to control cells [4]: 12.0 ± 8.7%; increase in cell cholesterol [5]: 17.3 ± 5.2%; decrease in number of LBPA-rich structures per cell profile [6, 13]: 69.0 ± 4.5%; increase in diameter of LBPA-rich structures [6, 13]: 42.6 ± 5.2%; effect on transferrin recycling [7]: no effect; release of mature VLPs (HIV-1) [8]: did not inhibit the release of mature VLPs |
| CCCCc1oc2ccccc2c1C(=O)c1cc(I)c(OCCN(C(C)C)C(C)C)c(I)c1.Cl [DIPAM, (2-butyl-benzofuran-3-yl)-4-[2-(diisopropylamino)ethoxy]-3,5-diiodophenyl-methanone·hydrochloride] | 1.64 ± 0.04 | 24.6 ± 3.0 | 0.23 ^b μM | 0.014 ^b μM | 2.07 | – |
| CCCCc1oc2ccc(NS(C)(=O)=O)cc2c1C(=O)c1ccc(OCCCN(CCCC)CCCC)cc1 [DRO, Dronedarone] | – | – | – | – | – | highest concentration tolerated by transfected cells ([10]; BHK cells transiently transfected with pEGFP-LC3, 16 h): 2 µM; concentration toxic to cells ([10]; BHK cells, 16 h): > 5 µM; Aqueous solubility of hydrochloride salt At pH 7.4 [11]: <0.001 ^c μM; serum levels, times lower than in patients treated with amiodarone [12]: over 10 times |
| CCCCc1oc2ccccc2c1C(=O)c1cc(I)c(OCCNCC)c(I)c1 [MDEA, 2-n-butyl-3-(3,5-diiodo-4-ethylaminoethoxybenzoyl)-benzofuran, reference compound] | – | – | – | – | – | solubility ([9]; pH 5): 12 µM; solubility ([9]; pH 7.4): 0.11 µM |
| CCCCc1oc2ccccc2c1C(=O)c1cc(I)c(OCCN2CCOCC2)c(I)c1 [MOPAM, 2-n-butyl-3-(3,5-diiodo-4-β-Nmorpholinoethoxybenzoyl)benzofuran] | 1.45 ± 0.02 | 29.3 ± 0.6 | 0.17 ^b μM | 0.015 ^b μM | 0.55 | – |
| CCCCc1oc2ccccc2c1C(=O)c1cc(I)c(OCCN(C)C)c(I)c1 [MeAMI, (2-butyl-benzofuran-3-yl)-4-[2-(dimethylamino-ethoxy)-3,5-diiodophenyl]methanone] | 2.45 ± 0.08 | 4.5 ± 0.6 | 2.21 ^b μM | 0.051 ^b μM | 17.50 | – |
| CCCCc1oc2ccccc2c1C(=O)c1cc(I)c(OCCN2CCCCC2)c(I)c1.Cl [PIPAM, 4-(2-butyl-benzofuran-3-yl)-[3,5-diiodophenyl-4-(2-piperidinoethoxy)phenyl] methanone·hydrochloride] | 1.73 ± 0.03 | 14.7 ± 2.1 | 2.22 ^b μM | 0.023 ^b μM | 11.88 | – |
| CCCCc1oc2ccccc2c1C(=O)c1cc(I)c(OCCN2CCCC2)c(I)c1.Cl [PYRAM, 4-(2-butyl-benzofuran-3-yl)-[3,5-diiodophenyl-4-(2-pyrrolidin-1-yl-ethoxy)phenyl]-methanone·hydrochloride] | 2.08 ± 0.05 | 7.6 ± 0.6 | 1.86 ^b μM | 0.049 ^b μM | 9.22 | – |
